Source: patent US9169254B2, “Spiroimidazolone derivative” (Chugai Seiyaku Kabushiki Kaisha, priority 2009, dated 2015)
Structures can show the parent of a compound that is named as a salt.

Biological target: T1, human PTH1 receptor (Homo sapiens, UniProt Q03431)
T1 sequence (Q03431 27-593): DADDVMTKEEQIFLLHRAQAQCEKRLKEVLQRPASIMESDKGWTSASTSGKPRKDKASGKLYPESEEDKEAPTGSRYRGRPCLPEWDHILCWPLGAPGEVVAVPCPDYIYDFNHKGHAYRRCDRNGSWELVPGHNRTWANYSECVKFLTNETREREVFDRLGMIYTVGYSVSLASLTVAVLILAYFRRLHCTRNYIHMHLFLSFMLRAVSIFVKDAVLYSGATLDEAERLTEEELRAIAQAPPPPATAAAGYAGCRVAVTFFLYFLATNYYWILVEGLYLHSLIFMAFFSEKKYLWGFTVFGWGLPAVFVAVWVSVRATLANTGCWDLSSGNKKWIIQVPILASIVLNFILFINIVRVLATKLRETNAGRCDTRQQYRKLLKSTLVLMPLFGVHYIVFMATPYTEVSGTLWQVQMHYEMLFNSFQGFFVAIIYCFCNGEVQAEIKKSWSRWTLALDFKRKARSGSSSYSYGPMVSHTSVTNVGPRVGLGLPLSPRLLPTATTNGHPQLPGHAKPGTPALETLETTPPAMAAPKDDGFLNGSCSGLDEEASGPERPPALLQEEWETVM
Experiment: In vitro cAMP signal activity in HKRK-B7 cells (LLC-PK1 cells overexpressing the human PTH1 receptor)
Assay type: cell-based
Conditions: HKRK-B7 cells; compound at 1×10^−3 M; cAMP produced as percentage of that produced by hPTH(1-34) at 100 nM

cAMP production activity (%)	Compound
92	Cc1cc(N(C)C(N)=O)cc(C)c1CCS(=O)(=O)N1CCC2(CC1)N=C(CCCCCCCCCF)NC2=O [Compound 1327, 1-(4-{2-[2-(9-Fluoro-nonyl)-4-oxo-1,3,8-triaza-spiro[4.5]dec-1-ene-8-sulfonyl]-ethyl}-3,5-dimethyl-phenyl)-1-methyl-urea]
91	Cc1cc(N(C)C(N)=O)cc(C)c1CCS(=O)(=O)N1CCC2(CC1)N=C(CCCCCCCCCCCC(N)=O)NC2=O [Compound 1174, 12-(8-{2-[2,6-dimethyl-4-(1-methyl-ureido)-phenyl]-ethanesulfonyl}-4-oxo-1,3,8-triaza-spiro[4.5]dec-1-en-2-yl)-dodecanoic acid amide]
35	CNc1cc(C)c(CCS(=O)(=O)N2CCC3(CC2)N=C(C2CCCN2)NC3=O)c(C)c1 (stereo not drawn) [Compound 1286, 8-[2-(2,6-Dimethyl-4-methylamino-phenyl)-ethanesulfonyl]-2-pyrrolidin-2-yl-1,3,8-triaza-spiro[4.5]dec-1-en-4-one dihydrochloride]
70	Cc1cc(C(=O)N2CCC(O)(CF)CC2)cc(C)c1/C=C/S(=O)(=O)N1CCC2(CC1)N=C(c1ccc(OCC(F)(F)C(F)F)c(Cl)c1)NC2=O [Compound 1247, 2-[3-chloro-4-(2,2,3,3-tetrafluoro-propoxy)-phenyl]-8-{(E)-2-[4-(4-fluoromethyl-4-hydroxy-piperidine-1-carbonyl)-2,6-dimethyl-phenyl]-ethenesulfonyl}-1,3,8-triaza-spiro[4.5]dec-1-en-4-one]
64	Cc1cc(C(=O)N2CCC(OC[C@H](O)CO)CC2)cc(C)c1/C=C/S(=O)(=O)N1CCC2(CC1)N=C(C1CCC(CCC(F)(F)F)CC1)NC2=O (stereo partly drawn) [Compound 993, 8-((E)-2-{4-[4-((R)-2,3-dihydroxy-propoxy)-piperidine-1-carbonyl]-2,6-dimethyl-phenyl}-ethenesulfonyl)-2-[4-(3,3,3-trifluoro-propyl)-cyclohexyl]-1,3,8-triaza-spiro[4.5]dec-1-en-4-one]
63	Cc1cc(S(=O)(=O)NC2CCC(O)CC2)ccc1CCS(=O)(=O)N1CCC2(CC1)N=C(c1cccc(C(F)(F)F)c1)NC2=O (stereo not drawn) [Compound 853, N-(4-hydroxy-cyclohexyl)-3-methyl-4-{2-[4-oxo-2-(3-trifluoromethyl-phenyl)-1,3,8-triaza-spiro[4.5]dec-1-ene-8-sulfonyl]-ethyl}-benzenesulfonamide]
26	CN(C)C(=O)NCCc1ccc(/C=C/S(=O)(=O)N2CCC3(CC2)N=C(C2CCCCC2)NC3=O)cc1 [Compound 490, 3-(2-{4-[(E)-2-(2-cyclohexyl-4-oxo-1,3,8-triaza-spiro[4.5]dec-1-ene-8-sulfonyl)-vinyl]-phenyl}-ethyl)-1,1-dimethyl-urea]
42	CCC[C@H]1CC[C@H](C2=NC3(CCN(S(=O)(=O)c4cccc(Cl)c4)CC3)C(=O)N2)CC1 [Compound 21, 8-(3-chloro-benzenesulfonyl)-2-(4-propyl-cyclohexyl)-1,3,8-triaza-spiro[4.5]dec-1-en-4-one]
55	O=C1NC(C2CCCCC2)=NC12CCN(S(=O)(=O)c1cccs1)CC2 [Compound 56, 2-cyclohexyl-8-(thiophene-2-sulfonyl)-1,3,8-triaza-spiro[4.5]dec-1-en-4-one]
51	O=C1NC(c2cccc(OC(F)(F)F)c2)=NC12CCN(S(=O)(=O)/C=C/c1ccc3c(ccn3C[C@H](O)CO)c1)CC2 [Compound 597, 8-{(E)-2-[1-((S)-2,3-dihydroxy-propyl)-1H-indol-5-yl]-ethenesulfonyl}-2-(3-trifluoromethoxy-phenyl)-1,3,8-triaza-spiro[4.5]dec-1-en-4-one]
49	O=C1NC(C2CCCCC2)=NC12CCN(S(=O)(=O)/C=C/c1ccc3c(ccn3CCOCCO)c1)CC2 [Compound 487, 2-cyclohexyl-8-((E)-2-{1-[2-(2-hydroxy-ethoxy)-ethyl]-1H-indol-5-yl}-ethenesulfonyl)-1,3,8-triaza-spiro[4.5]dec-1-en-4-one]
17	Cc1cc(C(=O)N(C)C)ccc1-c1cccc(S(=O)(=O)N2CCC3(CC2)N=C(c2cccc(OC(F)(F)F)c2)NC3=O)n1 [Compound 337, 3,N,N-trimethyl-4-{6-[4-oxo-2-(3-trifluoromethoxy-phenyl)-1,3,8-triaza-spiro[4.5]dec-1-ene-8-sulfonyl]-pyridin-2-yl}-benzamide]
110	Cc1cc(C(=O)N2CCC(C)(O)CC2)cc(C)c1/C=C/S(=O)(=O)N1CCC2(CC1)N=C(c1ccc(F)c(Cl)c1)NC2=O [Compound 1186, 2-(3-chloro-4-fluoro-phenyl)-8-{(E)-2-[4-(4-hydroxy-4-methyl-piperidine-1-carbonyl)-2,6-dimethyl-phenyl]-ethenesulfonyl}-1,3,8-triaza-spiro[4.5]dec-1-en-4-one]
94	Cc1cc(C(=O)N(C)C)ccc1CCS(=O)(=O)N1CCC2(CC1)N=C(c1cccc(C(F)(F)F)c1F)NC2=O [Compound 116, 4-{2-[2-(2-fluoro-3-trifluoromethyl-phenyl)-4-oxo-1,3,8-triaza-spiro[4.5]dec-1-ene-8-sulfonyl]-ethyl}-3,N,N-trimethyl-benzamide]
69	CC(=O)N(c1ccc(/C=C/S(=O)(=O)N2CCC3(CC2)N=C(c2cccc(OC(F)(F)F)c2)NC3=O)c(C)c1)C(C)C [Compound 603, N-isopropyl-N-(3-methyl-4-{(E)-2-[4-oxo-2-(3-trifluoromethoxy-phenyl)-1,3,8-triaza-spiro[4.5]dec-1-ene-8-sulfonyl]-vinyl}-phenyl)-acetamide]
68	CNC(=O)c1ccccc1CCS(=O)(=O)N1CCC2(CC1)N=C(C1CCCCC1)NC2=O [Compound 421, 2-[2-(2-Cyclohexyl-4-oxo-1,3,8-triaza-spiro[4.5]dec-1-ene-8-sulfonyl)-ethyl]-N-methyl-benzamide]
77	Cc1cc(N2NCCC2=O)ccc1/C=C/S(=O)(=O)N1CCC2(CC1)N=C([C@H]1CC[C@H](C)CC1)NC2=O [Compound 588, 2-(4-methyl-cyclohexyl)-8-{(E)-2-[2-methyl-4-(5-oxo-pyrazolidin-1-yl)-phenyl]-ethenesulfonyl}-1,3,8-triaza-spiro[4.5]dec-1-en-4-one]
47	CC(C)(C)OC(=O)NCc1ccc(/C=C/S(=O)(=O)N2CCC3(CC2)N=C(C2CCCCC2)NC3=O)c(C(F)(F)F)c1 [Compound 205, {4-[(E)-2-(2-cyclohexyl-4-oxo-1,3,8-triaza-spiro[4.5]dec-1-ene-8-sulfonyl)-vinyl]-3-trifluoromethyl-benzyl}-carbamic acid tert-butyl ester]
69	CC(=O)N(CCO)c1ccc(/C=C/S(=O)(=O)N2CCC3(CC2)N=C(c2cccc(OC(F)(F)F)c2)NC3=O)c(C)c1 [Compound 232, N-(2-hydroxy-ethyl)-N-(3-methyl-4-{(E)-2-[4-oxo-2-(3-trifluoromethoxy-phenyl)-1,3,8-triaza-spiro[4.5]dec-1-ene-8-sulfonyl]-vinyl}-phenyl)-acetamide]
87	Cc1cc(N(C)C(=O)OCCO)cc(C)c1/C=C/S(=O)(=O)N1CCC2(CC1)N=C(c1cccc(OC(F)(F)F)c1)NC2=O [Compound 1012, (3,5-Dimethyl-4-{(E)-2-[4-oxo-2-(3-trifluoromethoxy-phenyl)-1,3,8-triaza-spiro[4.5]dec-1-ene-8-sulfonyl]-vinyl}-phenyl)-methyl-carbamic acid 2-hydroxy-ethyl ester]
47	O=C1NC(c2cccc(OC(F)(F)F)c2)=NC12CCN(S(=O)(=O)CCc1ccccc1C(F)(F)F)CC2 [Compound 304, 2-(3-trifluoromethoxy-phenyl)-8-[2-(2-trifluoromethyl-phenyl)-ethanesulfonyl]-1,3,8-triaza-spiro[4.5]dec-1-en-4-one]
82	Cc1cc(C(=O)N2CCC(C)(O)CC2)cc(C)c1/C=C/S(=O)(=O)N1CCC2(CC1)N=C(c1ccc(C(F)(F)C(F)(F)F)cc1)NC2=O [Compound 1195, 8-{(E)-2-[4-(4-hydroxy-4-methyl-piperidine-1-carbonyl)-2,6-dimethyl-phenyl]-ethenesulfonyl}-2-(4-pentafluoroethyl-phenyl)-1,3,8-triaza-spiro[4.5]dec-1-en-4-one]
120	O=C1NC(c2cccc(OC(F)(F)F)c2)=NC12CCN(S(=O)(=O)CCc1cccc3c1ccn3C[C@H](O)CO)CC2 [Compound 746, 8-{2-[1-((S)-2,3-dihydroxy-propyl)-1H-indol-4-yl]-ethanesulfonyl}-2-(3-trifluoromethoxy-phenyl)-1,3,8-triaza-spiro[4.5]dec-1-en-4-one]
72	Cc1ccc(NCCO)cc1CCS(=O)(=O)N1CCC2(CC1)N=C(C1CCCCC1)NC2=O [Compound 275, 2-cyclohexyl-8-{2-[5-(2-hydroxy-ethylamino)-2-methyl-phenyl]-ethanesulfonyl}-1,3,8-triaza-spiro[4.5]dec-1-en-4-one]
